According to patent publication US20250221953A1 (The University of Chicago, priority 2022, published 2025):

The compounds below were run on Jurkat T cells. Details: IL-2 production level in treated group compared to control group; 48 hours treatment, then anti-CD3/anti-CD28 12 hours.
Type: cell-based, human
Description: Two preliminary screens were designed and performed.
To construct “blood chemical compound library for cell-based screening purposes, components such as antibodies that are difficult to distinguish due to a wide variety, and some supplements that only function at a whole organism level including fish oils and herbs were excluded. Physiological ranges of serum levels of individual blood chemicals are available in the human metabolome database (https://hmdb.ca/) and applied in the experimental design. For first screen 1a, Jurkat T cells were treated with blood chemical library for 48 hours and then activated with 2.5 μg/mL anti-CD3 and 0.5 μg/mL anti-CD28 antibodies for another 12 hours, followed by measurement of IL-2 level in medium supernatant using ELISA kit (Biolegend). For first screen 1b, 1×10^5 PD-1^+ Jurkat T cells were co-cultured with 2×10^4 H596 (PD-L1^+) cells in a well of 96-well plate for 60 hours, and then activated with 2.5 μg/mL anti-CD3 and 0.5 μg/mL anti-CD28 antibodies for another 12 hours, followed by measurement of IL-2 level in medium supernatant using ELISA kit. Please also refer to Resources Table and Table 1-2 for more details.

| Compound | Relative changed percentage (%) |
| --- | --- |
| CC[N+](CC)(CC)CC.O=S(=O)([O-])O | −35.95 |
| 2-DEOXY-L-RIBOSE/Deoxycytidine | 36.7 |
| O=C(O)CCCCC1CCSS1 (racemic) [DL-6,8-Thioctic Acid] | −4.135 |
| O=C(O)CC(O)C(=O)O (racemic) [DL-MALIC ACID] | 40.01 |
| CC(O)CC(=O)O (stereo not drawn) [3-HYDROXYBUTYRIC ACID] | 5.082 |
| Cl.NCCc1ccc(O)c(O)c1 [3-HYDRO[…]/dopamine, 3-HYDRO[…]] | 18.78 |
| C[C@]12CCC(=O)C[C@@H]1CC[C@@H]1[C@@H]2CC[C@]2(C)[C@@H](O)CC[C@@H]12 [5ALPHA-DIHYDROTESTOSTERONE (DIIT)/DIIT, 5ALPHA-DIHYDROTESTOSTERONE] | −3.457 |
| C[C@]12CCC(=O)C=C1CC[C@@H]1[C@@H]2CC[C@@]2(C)[C@H]1CC[C@]2(O)C(=O)CO [11-DEOXYCORTISOL/Cortexolone, 11-DEOXYCORTISOL] | 21.85 |
| CC(=O)[C@@]1(O)CC[C@H]2[C@@H]3CCC4=CC(=O)CC[C@]4(C)[C@H]3CC[C@@]21C [17A-HYDROXYPROGESTERONE] | 41.36 |
| Cc1cc(O)cc2c1O[C@](C)(CCC[C@H](C)CCC[C@H](C)CCCC(C)C)CC2 [(+)-DELTA-TOCOPHEROL] | 41.42 |
| Cc1c(O)cc2c(c1C)O[C@](C)(CCC[C@H](C)CCC[C@H](C)CCCC(C)C)CC2 [(+)-GAMMA-TOCOPHEROL] | 1.56 |
| Cl.NCCc1c[nH]c2ccc(O)cc12 [-HYDROXYTRYPTAMINE HYDROCHLORIDE] | −22.39 |
| CC1=CCCC(C)(C)C1/C=C/C(C)=C/C=C/C(C)=C/C=C/C=C(C)/C=C/C=C(C)/C=C/C1=C(C)CCCC1(C)C (stereo not drawn) [A-CAROTENE] | 6.561 |
| CC1=C[C@H](O)CC(C)(C)C1/C=C/C(C)=C/C=C/C(C)=C/C=C/C=C(C)/C=C/C=C(C)/C=C/C1=C(C)CCCC1(C)C (stereo partly drawn) [A-CRYPTOXANTHIN] | 29.1 |
| CC(C)=O [ACETONE] | −31.07 |
| CC(=O)OCC[N+](C)(C)C.[Cl-] [ACE[…]] | −8.939 |
| Nc1ncnc2c1ncn2[C@@H]1O[C@H](CO)[C@@H](O)[C@H]1O [ADENOSINE FREE BASE] | 3.704 |
| CCO [ALCOHOL] | 9.841 |
| C[C@]12CCC(=O)C=C1CC[C@@H]1[C@@H]2CC[C@]2(C)C(=O)CC[C@@H]12 [ANDROSTENEDIONE] | 25.93 |
| CC[C@H](C)[C@H](NC(=O)[C@H](Cc1ccc(O)cc1)NC(=O)[C@@H](NC(=O)[C@H](CCCNC(=N)N)NC(=O)[C@@H](N)CC(=O)O)C(C)C)C(=O)N[C@@H](Cc1cnc[nH]1)C(=O)N1CCC[C@H]1C(=O)N[C@@H](Cc1ccccc1)C(=O)O [ANGIOTENSIN II HUMAN] | 17.25 |
| Nc1ncnc2c1ncn2[C@@H]1O[C@H](COP(=O)([O-])OP(=O)([O-])OP(=O)(O)O)[C@@H](O)[C@H]1O.[Na+].[Na+] [Adenosine 5′-Triphosphate Disodium] | −38.28 |
| CC/C=C\C/C=C\C/C=C\CCCCCCCC(=O)O [Alpha-linolenic acid] | −24.53 |
| CCCCC/C=C\C/C=C\C/C=C\C/C=C\CCCC(=O)O [Arachidonic acid] | 4.583 |
| CC1=C(/C=C/C(C)=C/C=C/C(C)=C/C=C/C=C(C)/C=C/C=C(C)/C=C/C2=C(C)C(=O)[C@@H](O)CC2(C)C)C(C)(C)C[C@H](O)C1=O [Astaxanthin] | 12.26 |
| CC1=C(/C=C/C(C)=C/C=C/C(C)=C/C=C/C=C(C)/C=C/C=C(C)/C=C/C2=C(C)C[C@@H](O)CC2(C)C)C(C)(C)CCC1 [BETA-CRYPTOXANTHIN] | 24.88 |
| C[N+](C)(C)CC(=O)O [BETAINE] | −18.83 |
| O=C(O)CCCC[C@@H]1SC[C@@H]2NC(=O)N[C@@H]21 [BIOTIN, POWDER,, BIOTIN] | 36.45 |
